From ChEMBL document CHEMBL3137667, “[Drug-induced liver injury; fourteenth updated edition of the bibliographic database of liver injuries and related drugs]” (Gastroenterol Clin Biol, 2004)

Assays:
[1] = human, serum
[2] = Highest frequency of acute liver toxicity observed during clinical trials, expressed as a percentage. [column '% AIGUE' in source]; settings: human
[3] = Presence of at least one case with successful reintroduction. [column 'REINT' in source]; settings: human
[4] = human
[5] = human; remark: listed apart in the source
[6] = human; remark: listed apart in the source
[7] = human; remark: listed apart in the source
[8] = human, serum, 4383 h
[9] = Highest frequency of moderate liver toxicity observed during clinical trials, expressed as a percentage. [column '% BIOL' in source]; settings: human
[10] = human; remark: listed apart in the source
[11] = human; remark: listed apart in the source
[12] = human; remark: listed apart in the source
[13] = human; remark: listed apart in the source
[14] = human, serum; remark: listed apart in the source
[15] = human; remark: listed apart in the source
[16] = Comments (NB not yet translated). [column 'COMMENTAIRES' in source]; settings: human
[17] = Times to onset, minimal and maximal, observed in the indexed observations. [column 'DELAI' in source]; settings: human
[18] = Proposed mechanism(s) of liver damage. [column 'MEC' in source]; settings: human
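Throughout, for Hepatotoxicity (association with vascular disease): count of indexed literature references reporting vascular liver injury in humans, e.g. peliosis hepatitis, hepatic veno-occlusive disease or Budd-Chiari syndrome.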
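Throughout, for Hepatotoxicity (benign tumour): value is a count of indexed literature references citing a benign tumour confirmed by histopathology.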
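Throughout, for Hepatotoxicity (choleostasis): human cholestatic liver injury, shown by histopathology or by peak ALT or AST elevation over alkaline phosphatase ratio below 2, value counts indexed literature reports.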
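Throughout, for Hepatotoxicity (chronic liver disease): chronic liver injury confirmed by histopathology or persistently raised serum aminotransferase activity beyond 6 months, value given as the count of indexed literature references.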
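Throughout, for Hepatotoxicity (cirrhosis): value is a count of indexed literature references reporting cirrhosis confirmed by histopathology.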
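Throughout, for Hepatotoxicity (cytolytic): human cytolytic liver injury, shown by histopathology or by a ratio above 5 of peak ALT or AST elevation to alkaline phosphatase elevation, value counts indexed references.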
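Throughout, for Hepatotoxicity (granulomatous hepatitis): value is a count of indexed literature references reporting granulomatous liver disease confirmed by histopathology.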
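Throughout, for Hepatotoxicity (malignant tumour): malignant tumour confirmed by histopathology, value gives the count of indexed literature references reporting it.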
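Throughout, for Hepatotoxicity (severe hepatitis): human clinical data: severe hepatitis, meaning potentially life-threatening liver failure or clinically observed cases, the value counts how many indexed literature references report it.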
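Throughout, for Hepatotoxicity (steatosis): steatosis confirmed by histopathology, value is the count of indexed references.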

Molecule | Hepatotoxicity (moderate) [1] | Hepatotoxicity (acute) [2] [%] | Hepatotoxicity (benign tumour) [4] | Hepatotoxicity (cytolytic) [5] | Hepatotoxicity (association with vascular disease) [6] | Hepatotoxicity (cirrhosis) [7] | Hepatotoxicity (chronic liver disease) [8] | Hepatotoxicity (moderate) [9] [%] | Hepatotoxicity (severe hepatitis) [10] | Hepatotoxicity (malignant tumour) [11] | Hepatotoxicity (choleostasis) [12] | Hepatotoxicity (steatosis) [13] | Hepatotoxicity (acute) [14] | Hepatotoxicity (granulomatous hepatitis) [15] | Hepatotoxicity (comment) [16] | Hepatotoxicity (time to onset) [17] | Hepatotoxicity (mechanism) [18] | other results
O=C1CN2Cc3c(ccc(Cl)c3Cl)N=C2N1 [ANAGRELIDE] | 1 | 0 | 0 | 0 | 0 | 0 | 0 | 0.2 | 0 | 0 | 1 | 0 | 1 | 0 |  |  |  | Hepatotoxicity (successful reintroduction) [3]: yes
CN1CCN(C(c2ccccc2)c2ccccc2)CC1 [CYCLIZINE] | 0 | 0 | 0 | 0 | 0 | 0 | 0 | 0 | 0 | 0 | 0 | 0 | 1 | 0 |  |  |  | Hepatotoxicity (successful reintroduction) [3]: yes
CC(C(=O)Nc1cc(-c2ccccc2)nn1-c1ccccc1)N(C)C (stereo not given) [DIFENAMIZOLE] | 0 | 0 | 0 | 1 | 0 | 0 | 0 | 0 | 1 | 0 | 0 | 0 | 1 | 0 |  |  |  | Hepatotoxicity (successful reintroduction) [3]: yes
Nc1ccc(S(=O)(=O)Nc2ncccn2)cc1 [SULFADIAZINE] | 2 |  | 0 |  | 0 | 0 | 0 |  |  | 0 |  | 0 | 8 |  | CHOLESTASE_PROLONGEE | 1 week - 2 months |  | Hepatotoxicity (acute) ([2]; Liver): 0%; Hepatotoxicity (cytolytic) ([5]; Liver): 3; Hepatotoxicity (mechanism) ([18]; Liver): Allergic, Reactive metabolite; Hepatotoxicity (moderate) ([9]; Liver): 2.7%; Hepatotoxicity (severe hepatitis) ([10]; Liver): 1; Hepatotoxicity (choleostasis) ([12]; Liver): 1; Hepatotoxicity (granulomatous hepatitis) ([15]; Liver): 0
Cc1noc(NS(=O)(=O)c2ccc(N)cc2)c1C [SULFISOXAZOLE] | 0 |  | 0 | 1 | 0 | 0 | 0 |  |  | 0 | 2 | 0 | 4 | 0 | CHOLANGITE RC/COTRIMOXAZOLE | 2 days - 6 days | Allergic | Hepatotoxicity (acute) ([2]; Liver): 0%; Hepatotoxicity (moderate) ([9]; Liver): 0%; Hepatotoxicity (severe hepatitis) ([10]; Liver): 1
CC(S)C(=O)NCC(=O)O (stereo not given) [TIOPRONIN] | 1 | 2.1 | 0 | 1 | 0 | 0 | 3 | 0 | 0 | 0 | 8 | 1 | 10 | 0 | CHOLESTASE_PROLONGEE #CBP | 19 days - 2 years | Allergic | 
Cc1cccc(C)c1NC(=O)C(C)N (stereo not given) [TOCAINIDE] | 2 | 0 | 0 | 5 | 0 | 0 | 0 | 1.7 | 0 | 0 | 4 | 1 | 6 | 1 | AC_ANTI-N/-ML | 1 month - 2 months | Allergic | 
CC1=C(/C=C/C(C)=C/C=C/C(C)=C/C(=O)O)C(C)(C)CCC1 [TRETINOIN] | 26 | 16.7 | 0 | 3 | 0 | 0 | 0 | 85 | 2 | 0 | 4 | 0 | 10 | 0 | CHOLANGITE | 10 days - 38 days | Dose-dependant | 
CC(CN(C)C)CN1c2ccccc2CCc2ccccc21 (stereo not given) [TRIMIPRAMINE] | 2 | 0 | 0 | 1 | 0 | 0 | 0 | 0 | 0 | 0 | 0 | 0 | 2 | 0 | RC/DESIPRAMINE/CYAMEMAZINE | 2 weeks - 3 weeks | Dose-dependant | 
Cc1c(C)c2c(c(C)c1O)CCC(C)(COc1ccc(CC3SC(=O)NC3=O)cc1)O2 (stereo not given) [TROGLITAZONE] | 18 | 5 | 0 | 27 | 0 | 0 | 1 | 5.8 | 21 | 0 | 4 | 2 | 36 | 1 | CHOLESTASE_PROLONGEE | 3 days - 2.3 years | Mitochondrial toxicity | 
GEMTUZUMAB OZOGAMICIN | 7 | 38.3 | 0 | 10 | 19 | 0 | 0 | 47.8 | 1 | 0 | 2 | 0 | 11 | 0 | MVO | 2 days - 6 months | Dose-dependant | 
GOLD | 22 | 0.8 | 0 | 7 | 0 | 0 | 1 | 40 | 5 | 0 | 44 | 0 | 52 | 1 | AC_ANTI-ADN/-ML/-N HLA-DR3 PERICHOLANGITE | 1 week - 5 years | Allergic, Dose-dependant | 
INTERFERON ALFA | 21 | 0 | 0 | 2 | 0 | 1 | 0 | 58 | 1 | 0 | 1 | 3 | 2 | 0 | AGGRAVATION_HEPATITE_AUTOIMMUNE/B/DELTA AC_ANTI-ML/LKM/CH | 8 days - 8 months | Dose-dependant | 
